Experimental data reported in patent publication EP0454060B1, “3-(Mercaptoalkyl)-quinazoline-2,4(1H,3H)-diones, processes for their preparation, and pharmaceutical compositions” (priority 1990, dated 1991).

The molecules below were run on Kontaktüberempfindlichkeit vom verzögerten Typ (Effektor-T-Lymphozyten-Aktivität) (assay: Percutaneous test for contact hypersensitivity after DNFB immunisation). Conditions: Sensibilisierungsgrad versus control group; 2 mg/kg daily peroral, day +1 to +6; screening values; from 120 stimulatory, below 80 suppressive.
Type: in vivo, Meerschweinchen (Albino-Koloniezucht)
From the text: Der Nachweis einer immunregulatorischen Wirksamkeit wurde am Meerschweinchen (Albino-Koloniezucht) und u. a. mit Hilfe folgender Techniken geführt: • Perkutaner Test zum Nachweis einer Kontaktüberempfindlichkeit vom verzögerten Typ (Effektor-T-Lymphozyten-Aktivität), • Takatsy-Test zum Nachweis DNP-spezifischer Serumantikörper (humorale Immunantwort).
Der Nachweis der antiviralen Wirksamkeit erfolgte in vitro an Hühnerembryonalzellen mit Vertretern verschiedener Virusgruppen. 1. Untersuchungen zur immunregulatorischen Wirksamkeit 1.1 Perkutaner Test zum Nachweis einer Kontaktüberempfindlichkeit Die epikutane Applikation von Dinitrofluorbenzol (DNFB) führt beim Meerschweinchen und bei der Maus zur Entwicklung einer verzögerten Überempfindlichkeit, eines Immunstatus, der an die klonale Vermehrung TNP-spezifischer T-Lymphozyten (TDTH-Ly) gebunden ist. Erfolgt nach einer Latenzperiode von mindestens 5 Tagen eine erneute DNFB-Applikation, kommt es zu einer Freisetzung von Lymphokinen durch Reaktion mit den TDTH-Ly dieses Hautbereiches und dadurch zu einer lokal begrenzten Entzündungsreaktion. Sieben Tage nach der Immunisierung mit 1 %igem DNFB wurden die Flanken der Versuchstiere enthaart und durch Aufbringen je eines Tropfens 0,5 %, 0,1 %, 0,05 %, 0,025 % und 0,01 %iger DNFB-Lösung getestet. Die noch positive Konzentration ist dem Grad der Sensibilisierung umgekehrt proportional. Die Testergebnisse ergeben sich aus Stärke und Anzahl der positiven Hautreaktionen, der Stimulierungsindex (SI) aus dem Vergleich der Test- und Kontrolltiere. Die Substanzbehandlung erfolgte peroral. Mittels Schlundsonde wurde eine tägliche Dosis von 2 mg/kg Körpermasse als Suspension in Wasser gegeben. Behandlungsdauer: 1 Tag + 1 (ein Tag nach der Immunisierung) bis +6. Die Kontrolltiere erhielten nur die eingesetzte Lactose. 1.2 Takatsy-Test Nach Immunisierung mit Dinitrofluorbenzol (DNFB) kommt es beim Meerschweinchen auch zur Bildung DNP-spezifischer humoraler Antikörper, die bevorzugt der IgG1-Substanzklasse angehören. 14 Tage nach primärer epikutaner Applikation von DNFB wurde den Versuchstieren Blut durch Herzpunktion entnommen. Die Bestimmung der Antikörperkonzentration erfolgte nach einer von Takatsy beschriebenen Methode (Takatsy, G.: A new method for the preparation of serial dilutions in a quick and accurate way. Kiserletes Orvostudomany 2 (1950) 263 - 396). Als Indikatorzellen wurden TNP-beladene Schaferythrozyten verwendet (Kopplung nach Rittenberg und Pratt; Rittenberg, M. B. and Pratt, K. L.: Antitrinitrophenyl (TNP) plaque assay. Primary response of BALB/c mice to soluble and particulate immunogen. Proc. Soc. exp. Biol. Med., 132 (1969) 575 - 579). 1.3 Ergebnisse Sensibilisierungsgrad (%) und Serumantikörperkonzentration (AK-Titer-Differenz) gegenüber der jeweiligen Kontrollgruppe (Screening-Werte)
Aus den Werten wird deutlich, daß die Verbindungen der allgemeinen Formel I einen gut nachweisbaren Effekt auf die Effektor-T-Lymphozyten-abhängige verzögerte Uberempfindlichkeit haben. Kontaktdermatitis-Werte ab 120 (≙ 20 % Steigerung gegenüber der Kontrolle) bzw. unter 80 werden als Nachweis eines stimulatorischen bzw. suppressorischen Effektes angesehen. Antikörpertiter-Differenzen von >+1 bzw. <-1 verdeutlichen den stimulatorischen bzw. suppressorischen Effekt der Substanzen auf die humorale Immunantwort. 2. Untersuchungen zur immunstimulierenden Wirkung • 2.1 Plaque-Test zum Nachweis von SE-spezifischen IgM- und IgG-PBZ Zur Prüfung immunstimulierender Effekte wurde u. a. auch der Einfluß von Verbindungen der allgemeinen Formel I auf die humorale Immunantwort an Mäusen des Inzuchtstammes CBA und mittels Hämolyse-Plaque-Test (HPT) untersucht. Diese Technik erlaubt die quantitative und getrennte Erfassung IgM- und IgG-Antikörper produzierender Zellen (= Plaque bildende Zellen; PBZ). […]

| Compound | Kontaktdermatitis (Kontrolle: 100) 24-Stunden-Reaktion | Kontaktdermatitis (Kontrolle: 100) 48-Stunden-Reaktion |
| --- | --- | --- |
| O=c1[nH]c2ccc(Br)cc2c(=O)n1CCCS [Beispiel 14b, 6-Brom-3-(3-mercaptopropyl)-chinazolin-2 4(1H 3H)-dion] | 105% | 100% |
| O=c1[nH]c2ccc(Cl)cc2c(=O)n1CCCS [Beispiel 8, 6-Chlor-3-(3-mercaptopropyl)-chinazolin-2,4(1H,3H)-dion] | 100% | 115% |
| O=c1[nH]c2ccc(Cl)cc2c(=O)n1CCS [Beispiel 13, 6-Chlor-3-(2-mercaptoethyl)-chinazolin-2,4(1H,3H)-dion] | 120% | 130% |
| O=c1[nH]c2ccc(Br)cc2c(=O)n1CCS [Beispiel 5, 6-Brom-3-(2-mercaptoethyl)-chinazolin-2,4(1H,3H)-dion] | 150% | 120% |
| Cc1ccc2[nH]c(=O)n(CCS)c(=O)c2c1 [Beispiel 14a, 6-Methyl-3-(2-mercaptoethyl)-chinazolin-2,4(1H,3H)-dion] | 60% | 60% |
| CC(S)Cn1c(=O)[nH]c2ccccc2c1=O (centres unmarked) [Beispiel 7, 3-(2-Mercaptopropyl)-chinazolin-2,4(1H,3H)-dion] | 230% | – |
| COc1cc2[nH]c(=O)n(CC(C)S)c(=O)c2cc1OC (centres unmarked) [Beispiel 14e, 6,7-Dimethoxy-3-(2-mercaptopropyl)-chinazolin-2,4(1H,3H)-dion] | 100% | – |
| Cc1ccc2[nH]c(=O)n(CCCS)c(=O)c2c1 [Beispiel 12, 6-Methyl-3-(3-mercaptopropyl)-chinazolin-2,4(1H,3H)-dion] | 120% | 130% |
| COc1cc2[nH]c(=O)n(CCS)c(=O)c2cc1OC [Beispiel 3, 3-(2-Mercaptoethyl)-6,7-dimethoxychinazolin-2,4(1H,3H)-dion] | 100% | – |
| O=c1[nH]c2ccccc2c(=O)n1CCCS [Beispiel 6, 3-(3-Mercaptopropyl)-chinazolin-2,4(1H,3H)-dion] | 70% | 40% |
| O=c1[nH]c2ccc(F)cc2c(=O)n1CCCS [Beispiel 14d, 6-Fluor-3-(3-mercaptopropyl)-chinazolin-2,4(1H,3H)-dion] | 100% | 150% |
| O=c1[nH]c2ccc(F)cc2c(=O)n1CCS [Beispiel 14c, 6-Fluor-3-(2-mercaptoethyl)-chinazolin-2,4(1H 3H)-dion] | 90% | 105% |

Each molecule was assayed on SE-spezifischer rosettenbildender Zellen (assay: Rosette test (SE-specific rosettes)). Conditions: oral administration.
Type: in vivo, Maus (Inzuchtstamm CBA)
From the text: Der Nachweis immunstimulierender Effekte wurde weiterhin an der Maus (Inzuchtstamm CBA) und u. a. mit Hilfe folgender Nachweismethoden geführt: • Plaque-Test zum Nachweis von SE-spezifischen IgM- und IgG-PBZ, • Rosettentest.
Aus den Werten wird deutlich, daß die Verbindungen der allgemeinen Formel I einen gut nachweisbaren Effekt auf die Effektor-T-Lymphozyten-abhängige verzögerte Uberempfindlichkeit haben. Kontaktdermatitis-Werte ab 120 (≙ 20 % Steigerung gegenüber der Kontrolle) bzw. unter 80 werden als Nachweis eines stimulatorischen bzw. suppressorischen Effektes angesehen. Antikörpertiter-Differenzen von >+1 bzw. <-1 verdeutlichen den stimulatorischen bzw. suppressorischen Effekt der Substanzen auf die humorale Immunantwort. 2. Untersuchungen zur immunstimulierenden Wirkung • 2.1 Plaque-Test zum Nachweis von SE-spezifischen IgM- und IgG-PBZ Zur Prüfung immunstimulierender Effekte wurde u. a. auch der Einfluß von Verbindungen der allgemeinen Formel I auf die humorale Immunantwort an Mäusen des Inzuchtstammes CBA und mittels Hämolyse-Plaque-Test (HPT) untersucht. Diese Technik erlaubt die quantitative und getrennte Erfassung IgM- und IgG-Antikörper produzierender Zellen (= Plaque bildende Zellen; PBZ). Die Immunisierung mit Schaferythrozyten (SE) erfolgte am Tag 0, die Substanzapplikation (Tagesdosis 1.10^-5 mol/kg Körpermasse; peroral) an den Tagen -1 bis +3 (zur Erfassung der IgM-PBZ) bzw. an den Tagen +1 bis +5 (zur Erfassung der IgG-PBZ). • 2.2 Ergebnisse: Durch tägliche und über 5 Tage gehende Gabe von 2,0 mg der Verbindung gemäß Beispiel 1 pro kg Körpermasse konnte die Zahl der IgM-PBZ auf einen Durchschnittswert von 352 % im Vergleich zur Kontrolle (100 %) gesteigert werden. Die gleiche Form der Behandlung führte zu einer Erhöhung der IgG-PBZ auf 497 % (Kontrolle: 100 %). In beiden Fällen erwies sich die Differenz zur Kontrolle im t-Test mit p < 0,001 als signifikant. […]

| Compound | SE-spezifischer rosettenbildender Zellen |
| --- | --- |
| COc1cc2[nH]c(=O)n(CC(C)S)c(=O)c2cc1OC (centres unmarked) [Beispiel 14e, 6,7-Dimethoxy-3-(2-mercaptopropyl)-chinazolin-2,4(1H,3H)-dion] | signifikante Förderung |
| O=c1[nH]c2ccccc2c(=O)n1CCCS [Beispiel 6, 3-(3-Mercaptopropyl)-chinazolin-2,4(1H,3H)-dion] | signifikante Förderung |
